We go through five compounds from patent US20050095239A1, “Methods and compositions for treating Alzheimer's disease” (priority 2002, published 2005).

Test [1] deals with ABCA1 protein expression in Neuro2A cells. Kind of test: ABCA1 immunoblot of Neuro2A cells treated with retinoic acid and oxysterols. As to conditions: for ABCA1 induction, densitometric analysis / increase of ABCA1 protein (immunoblot) compared with 22-hydroxycholesterol: 5 μM oxysterol with 5 μM retinoic acid; for increase of ABCA1 protein (immunoblot) compared with 22-hydroxycholesterol: one or two days. The format is cell-based, mouse. As for the experimental part: (§1) Cell culture. Mouse Neuro2A (neuroblastoma) cells and human IMR-32 (neuroblastoma) cells (American Type Culture Collection, Manassas, Va.) were cultured in Optimem (Gibco, Invitrogen Life Technologies, Carlsbad, Calif.) supplemented with 10% fetal bovine serum. Mouse BV-2 (microglial) and rat C6 (glioma) cells were cultured in Dulbecco's modified Eagle's medium supplemented with 5% fetal bovine serum. Mouse primary neuronal cultures were generated as described (27). Briefly, cortical neurons were isolated from embryonic day 16 Swiss-Webster mice. Individual cortices was dissociated in calcium-free saline and plated on poly-D-lysine (Sigma) coated tissue culture dishes at the density of 1.5×10^6 cell/ml. The neurons were grown in Neurobasal Media (Gibco BRL) plus 10% fetal bovine serum. One hour after plating, medium with serum was replaced with medium containing B-27 supplement (Gibco BRL). Western blot. Cells were lysed in 250 mM sucrose, 10 mM HEPES (pH 7.4), supplemented with complete protease inhibitors (Sigma Chemical Co). Protein levels were quantified by the BCA assay (Pierce, Rockford, Ill.), and samples of 50 μg were held in SDS loading buffer with 2.5% β-mercaptoethanol for 30 min at room temperature, but were not boiled prior to loading. Proteins were separated by SDS-6% polyacrylamide gel electrophoresis and transferred to nitrocellulose. Blots were probed with the anti-ABC1 antibodies (1:1000), and developed with anti-rabbit linked HRP secondary antibody by chemiluminescence.
In general terms: A western blot detects proteins with antibodies after separation by electrophoresis.

The subject of test [2] is secreted Aβ40 from Neuro2A cells. Put plainly: Aβ40 ELISA of conditioned medium of Neuro2A cells. As to conditions: for increase of secreted Aβ40 over vehicle-treated cells: with retinoic acid, one day, 22-hydroxycholesterol 10 uM. The format is cell-based, mouse. As for the experimental part: (§2) Cell culture. Mouse Neuro2A (neuroblastoma) cells and human IMR-32 (neuroblastoma) cells (American Type Culture Collection, Manassas, Va.) were cultured in Optimem (Gibco, Invitrogen Life Technologies, Carlsbad, Calif.) supplemented with 10% fetal bovine serum. Mouse BV-2 (microglial) and rat C6 (glioma) cells were cultured in Dulbecco's modified Eagle's medium supplemented with 5% fetal bovine serum. Mouse primary neuronal cultures were generated as described (27). Briefly, cortical neurons were isolated from embryonic day 16 Swiss-Webster mice. Individual cortices was dissociated in calcium-free saline and plated on poly-D-lysine (Sigma) coated tissue culture dishes at the density of 1.5×10^6 cell/ml. The neurons were grown in Neurobasal Media (Gibco BRL) plus 10% fetal bovine serum. One hour after plating, medium with serum was replaced with medium containing B-27 supplement (Gibco BRL).
(§3) RNA inhibition. Double stranded RNA (RNAi) was generated homologous to a region of the 5′ end of the coding portion of the mouse ABCA1 gene, 5′-AAGTGGCCTGGCCTCTCTTTA-3′ (SEQ ID NO:2) (Dharmacon Research Inc, Lafayette, Colo.). As a negative control, we used a sequence directed against the human hsp70 gene. Neuro2A cells were transfected with the RNAi with Effectene transfection reagent (Qiagen, Valencia, Calif.) according to manufacturer protocol. After an overnight exposure, RNAi complex was removed, cells were washed one time in growth medium, and the media was replaced with Neurobasal medium with 2% B-27 with or without LXR/RXR agonists for one day. Conditioned media was collected and analyzed for Aβ.
(§4) Aβanalyses. Cells were cultured in Neurobasal medium with 2% B-27 for one day in the presence or absence of LXR/RXR agonists. Aβ40 and Aβ42 levels in the conditioned medium were determined by ELISA, with BNT77 as a capture antibody and BA23-HRP for Aβ40 or BC05-HRP for Aβ42 as detection antibodies (28). Aβ antibodies for ELISA were the generous gift of Takeda Chemical Industries.
On the technique in general: ELISA stands for enzyme-linked immunosorbent assay.

Test [3] has as its system ABCA1 protein expression in BV-2 cells. Put plainly: ABCA1 immunoblot of BV-2 microglial cells. Format: cell-based, mouse. The procedure:
as §1

Test [4] concerns secreted Aβ42 from Neuro2A cells. Put plainly: Aβ42 ELISA of conditioned medium of Neuro2A cells. The format is cell-based, mouse. As to conditions: for increase of secreted Aβ42 over vehicle-treated cells: with retinoic acid, one day, 22-hydroxycholesterol 10 uM. As for the experimental part:
as §2, §3, §4

Test [5] concerns ABCA1 protein expression in C6 cells. Kind of test: ABCA1 immunoblot of C6 glioma cells. Format: cell-based, rat. The procedure: as §1
In test [6] the test system is ABCA1 protein expression in mouse primary neurons. Kind of test: ABCA1 immunoblot of mouse primary neurons treated with retinoic acid and 22-hydroxycholesterol. Format: cell-based. The procedure: as §1, with “Blots were probed with the anti-ABC1 antibodies (1:1000), and developed with anti-rabbit linked HRP secondary antibody by chemiluminescence.” left out
Test [7] has as its system ABCA1 protein expression in human neuroblastoma IMR-32 cells. Kind of test: ABCA1 immunoblot of IMR-32 cells. Format: cell-based. As to conditions: with retinoic acid. As for the experimental part:
as §1, with “Blots were probed with the anti-ABC1 antibodies (1:1000), and developed with anti-rabbit linked HRP secondary antibody by chemiluminescence.” left out

Another test relates to LXRα or LXRβ isoforms. As to conditions: references 37, 38; cited from earlier work.
Where [8] appears, read: 1 μM TO-901317 in the presence of 5 μM retinoic acid.
Where [9] appears, read: cells treated only with buffer or with the RNAi named.
[10] abbreviates: retinoic acid and 22-hydroxycholesterol vs vehicle (ethanol), absence of RNAi.
Where [11] appears, read: 5 μM retinoic acid and 5 μM 22-hydroxycholesterol together.

Regarding `C[C@H](CCCC(C)(C)O)[C@H]1CC[C@H]2[C@@H]3CC=C4C[C@@H](O)CC[C@]4(C)[C@H]3CC[C@]12C` [25-hydroxycholesterol], in test [1], the “ABCA1 induction, densitometric analysis” value is reported as “equivalent extent” and the “increase of ABCA1 protein (immunoblot) compared with 22-hydroxycholesterol” value is “nearly as well as 22-hydroxycholesterol”.
For `CC(C)CCC[C@@H](C)[C@H]1CC[C@H]2[C@@H]3C(=O)C=C4C[C@@H](O)CC[C@]4(C)[C@H]3CC[C@]12C` [7-ketocholesterol], in that order: “only half that level” and “not as efficacious”.
Consider `O=S(=O)(c1ccccc1)N(CC(F)(F)F)c1ccc(C(O)(C(F)(F)F)C(F)(F)F)cc1` [TO-901317], for which the “increase of secreted Aβ40 over vehicle-treated cells” value in test [2] was 25%. In addition, the ABCA1 expression result in test [3] (1 μM TO-901317 alone) was “increased”; in test [3] (setting [8]), “further increased”; in test [5] (1 μM TO-901317 alone), “increased”; in test [5] (setting [8]) it was “further increased”. Also, the “increase of secreted Aβ42 over vehicle-treated cells” value in test [4] was found to be 126%.
For `CC(C)CC[C@@H](O)[C@@H](C)[C@H]1CC[C@H]2[C@@H]3CC=C4C[C@@H](O)CC[C@]4(C)[C@H]3CC[C@]12C` [22-hydroxycholesterol, 22(R)-hydroxycholesterol], the “secreted Aβ40 after 22-hydroxycholesterol/retinoic acid treatment, in words” value in test [2] (setting [9]) is reported as “significantly increased”. For the same compound, the “increase of Aβ40, control cells of the RNAi experiment” value in test [2] (setting [10]) amounted to 29%. Also, the “increase of secreted Aβ40 over vehicle-treated cells” value in test [2] came out at 29%. Further, the “ABCA1 expression with increasing concentration” value in test [6] (22-hydroxycholesterol together with retinoic acid, from 100 nM to 10 uM) was “further increased ABCA1 expression”. Moreover, the “ABCA1 protein compared to untreated cells” value in test [6] (one-day treatment, 100 nM 22-hydroxycholesterol together with 100 nM retinoic acid) was “up-regulation of ABCA1 protein”. Moreover, the ABCA1 expression result in test [3] (setting [11]) and in test [5] (setting [11]) was “increased” each time. In test [4] (setting [9]), the “secreted Aβ42 after 22-hydroxycholesterol/retinoic acid treatment, in words” value is given as “significantly increased”. In test [4] (setting [10]), the “increase of Aβ42, control cells of the RNAi experiment” value is on record as 62%. For the same compound, in test [4], the “increase of secreted Aβ42 over vehicle-treated cells” value is 65%. In addition, in test [1], the “ABCA1 induction, densitometric analysis” value is given as “equivalent extent”. In test [1] (10 μM retinoic acid and 22-hydroxycholesterol together, untreated cells low or undetectable), the “expression of ABCA1” value is on record as “clearly apparent”. Besides, the “up-regulation of ABCA1 in cells treated only with the one compound” value in test [1] (compound alone, some experiments) is “weak up-regulation”. Moreover, in test [7], the ABCA1 levels entry was “detectable ABCA1 levels only after induction”.
Take `CC(C)[C@@H](O)CC[C@@H](C)[C@H]1CC[C@H]2[C@@H]3CC=C4C[C@@H](O)CC[C@]4(C)[C@H]3CC[C@]12C` [24S-hydroxycholesterol]: the “ABCA1 expression through interactions with LXRα or LXRβ” value with LXRα or LXRβ isoforms was “induces ABCA1 expression”.
